Laboratory results published in ChEMBL document CHEMBL4507291 (2021).

Assays:
[1] = biological target: Serine/threonine-protein kinase PAK 5 (Homo sapiens) (UniProt Q9P286)
[2] = biological target: Sodium-dependent noradrenaline transporter (Homo sapiens, UniProt P23975); details: Compound concentration 10.0 uM
[3] = biological target: Serine/threonine-protein kinase pim-1 (Homo sapiens) (UniProt P11309)
[4] = biological target: Serine/threonine-protein kinase N1 (Homo sapiens) (UniProt Q16512)
[5] = biological target: T1, Alpha-1A adrenergic receptor (Homo sapiens) (UniProt P35348); details: Compound concentration 10.0 uM
T1 sequence (whole entry): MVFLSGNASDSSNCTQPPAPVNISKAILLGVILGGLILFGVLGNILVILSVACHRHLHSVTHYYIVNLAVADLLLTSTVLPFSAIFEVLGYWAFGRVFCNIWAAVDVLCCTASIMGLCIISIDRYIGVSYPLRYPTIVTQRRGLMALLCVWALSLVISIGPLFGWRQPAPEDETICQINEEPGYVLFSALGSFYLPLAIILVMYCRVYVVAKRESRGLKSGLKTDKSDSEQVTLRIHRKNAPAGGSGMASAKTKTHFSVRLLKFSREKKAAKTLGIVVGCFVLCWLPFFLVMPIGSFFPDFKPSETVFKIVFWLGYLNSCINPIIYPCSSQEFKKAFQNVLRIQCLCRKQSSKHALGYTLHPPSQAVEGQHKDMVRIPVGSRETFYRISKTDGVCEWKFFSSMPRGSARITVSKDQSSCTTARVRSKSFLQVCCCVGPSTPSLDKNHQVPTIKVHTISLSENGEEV

[6] = biological target: T2, 5-hydroxytryptamine receptor 1A (Homo sapiens) (UniProt P08908); details: Compound concentration 10.0 uM
T2 sequence (whole entry): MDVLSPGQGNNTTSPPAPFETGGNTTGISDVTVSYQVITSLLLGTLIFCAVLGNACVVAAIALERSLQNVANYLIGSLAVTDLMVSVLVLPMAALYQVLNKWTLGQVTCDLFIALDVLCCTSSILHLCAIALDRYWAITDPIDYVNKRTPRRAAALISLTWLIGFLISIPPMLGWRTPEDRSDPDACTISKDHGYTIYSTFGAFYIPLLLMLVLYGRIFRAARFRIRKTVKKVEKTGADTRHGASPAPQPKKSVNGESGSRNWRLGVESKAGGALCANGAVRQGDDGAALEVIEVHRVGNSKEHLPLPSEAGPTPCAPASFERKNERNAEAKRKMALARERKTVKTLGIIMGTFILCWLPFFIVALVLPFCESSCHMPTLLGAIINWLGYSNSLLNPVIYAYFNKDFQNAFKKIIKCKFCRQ

[7] = biological target: Rho-associated protein kinase 2 (Homo sapiens) (UniProt O75116)
[8] = biological target: T3, Serine/threonine-protein kinase Nek1 (Homo sapiens) (UniProt Q96PY6)
T3 sequence (whole entry): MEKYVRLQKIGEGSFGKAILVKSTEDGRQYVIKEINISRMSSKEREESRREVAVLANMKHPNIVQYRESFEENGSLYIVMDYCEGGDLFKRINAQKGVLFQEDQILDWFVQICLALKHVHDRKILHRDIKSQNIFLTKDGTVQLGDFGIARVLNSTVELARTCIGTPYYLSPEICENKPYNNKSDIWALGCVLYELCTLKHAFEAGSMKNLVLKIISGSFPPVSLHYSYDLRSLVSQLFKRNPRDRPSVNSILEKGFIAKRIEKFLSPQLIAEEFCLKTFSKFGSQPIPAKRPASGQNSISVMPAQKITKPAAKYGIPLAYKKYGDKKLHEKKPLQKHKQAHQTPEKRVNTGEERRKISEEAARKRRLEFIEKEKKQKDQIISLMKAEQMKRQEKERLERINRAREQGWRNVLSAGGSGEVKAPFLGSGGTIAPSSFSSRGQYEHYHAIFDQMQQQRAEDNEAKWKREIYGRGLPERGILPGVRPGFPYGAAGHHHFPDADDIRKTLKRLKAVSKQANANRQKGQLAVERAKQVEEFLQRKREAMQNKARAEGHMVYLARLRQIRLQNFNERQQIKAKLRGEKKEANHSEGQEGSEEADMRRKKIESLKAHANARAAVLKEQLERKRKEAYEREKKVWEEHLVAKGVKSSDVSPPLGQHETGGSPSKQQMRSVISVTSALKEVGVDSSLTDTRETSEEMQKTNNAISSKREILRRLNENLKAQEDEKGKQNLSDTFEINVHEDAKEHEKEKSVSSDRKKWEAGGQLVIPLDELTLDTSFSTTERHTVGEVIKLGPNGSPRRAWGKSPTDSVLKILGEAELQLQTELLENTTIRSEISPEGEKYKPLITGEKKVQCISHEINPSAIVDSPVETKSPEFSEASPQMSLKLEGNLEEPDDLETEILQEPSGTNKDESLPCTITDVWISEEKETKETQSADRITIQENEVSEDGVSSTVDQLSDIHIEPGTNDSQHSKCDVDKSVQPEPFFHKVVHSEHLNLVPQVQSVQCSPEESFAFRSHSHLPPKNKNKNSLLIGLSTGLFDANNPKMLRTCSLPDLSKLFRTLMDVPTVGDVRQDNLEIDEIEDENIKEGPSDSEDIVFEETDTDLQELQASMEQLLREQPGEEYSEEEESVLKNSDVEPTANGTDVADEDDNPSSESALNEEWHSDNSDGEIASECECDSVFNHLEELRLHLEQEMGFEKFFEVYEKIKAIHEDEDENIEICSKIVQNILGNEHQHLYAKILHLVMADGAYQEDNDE

[9] = biological target: Death-associated protein kinase 3 (Homo sapiens) (UniProt O43293)
[10] = test system: Proto-oncogene tyrosine-protein kinase receptor Ret (Homo sapiens), P07949 [V804L]
[11] = biological target: Phosphatidylinositol 3-kinase C2 domain-containing subunit gamma (Homo sapiens) (UniProt O75747)
[12] = test system: Tyrosine-protein kinase ABL1 (Homo sapiens), P00519 [F317L]
[13] = test system: Phosphatidylinositol 4,5-bisphosphate 3-kinase catalytic subunit alpha isoform (Homo sapiens), P42336 [H1047Y]
[14] = biological target: Tyrosine-protein kinase ABL1 (Homo sapiens) (UniProt P00519)
[15] = biological target: Serine/threonine-protein kinase Chk2 (Homo sapiens) (UniProt O96017)
[16] = biological target: Calcium/calmodulin-dependent protein kinase type 1D (Homo sapiens) (UniProt Q8IU85)
[17] = Compound concentration 1000.0 nM
[18] = Compound concentration 100.0 nM

Chain of Sodium-dependent noradrenaline transporter (P23975 whole entry): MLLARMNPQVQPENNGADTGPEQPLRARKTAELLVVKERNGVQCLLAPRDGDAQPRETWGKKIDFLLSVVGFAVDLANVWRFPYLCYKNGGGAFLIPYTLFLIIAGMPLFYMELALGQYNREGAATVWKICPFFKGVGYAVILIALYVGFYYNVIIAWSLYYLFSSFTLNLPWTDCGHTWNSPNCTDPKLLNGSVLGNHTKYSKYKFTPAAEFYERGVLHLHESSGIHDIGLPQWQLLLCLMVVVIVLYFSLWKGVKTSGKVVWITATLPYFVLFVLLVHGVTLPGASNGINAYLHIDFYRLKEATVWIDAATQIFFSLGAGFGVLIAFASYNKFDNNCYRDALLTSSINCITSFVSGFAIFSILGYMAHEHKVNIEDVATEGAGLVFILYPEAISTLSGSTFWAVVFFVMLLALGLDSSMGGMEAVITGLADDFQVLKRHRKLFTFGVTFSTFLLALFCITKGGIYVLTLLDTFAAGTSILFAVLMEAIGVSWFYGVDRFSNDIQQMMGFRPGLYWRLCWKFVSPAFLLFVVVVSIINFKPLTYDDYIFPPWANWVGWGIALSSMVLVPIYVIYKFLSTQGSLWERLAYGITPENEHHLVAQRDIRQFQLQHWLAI
Chain of Calcium/calmodulin-dependent protein kinase type 1D (Homo sapiens) (Q8IU85 whole entry, looked up): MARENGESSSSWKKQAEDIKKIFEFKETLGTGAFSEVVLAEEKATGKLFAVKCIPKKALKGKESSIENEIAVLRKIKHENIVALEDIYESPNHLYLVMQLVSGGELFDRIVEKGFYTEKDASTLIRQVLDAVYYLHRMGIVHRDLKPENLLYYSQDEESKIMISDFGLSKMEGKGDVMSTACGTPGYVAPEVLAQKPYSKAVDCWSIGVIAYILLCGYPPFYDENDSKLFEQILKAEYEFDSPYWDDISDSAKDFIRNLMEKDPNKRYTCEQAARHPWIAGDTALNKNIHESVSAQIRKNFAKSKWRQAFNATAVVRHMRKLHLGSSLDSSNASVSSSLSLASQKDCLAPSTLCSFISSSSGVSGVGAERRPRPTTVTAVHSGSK
Chain of Rho-associated protein kinase 2 (Homo sapiens) (O75116 whole entry, looked up): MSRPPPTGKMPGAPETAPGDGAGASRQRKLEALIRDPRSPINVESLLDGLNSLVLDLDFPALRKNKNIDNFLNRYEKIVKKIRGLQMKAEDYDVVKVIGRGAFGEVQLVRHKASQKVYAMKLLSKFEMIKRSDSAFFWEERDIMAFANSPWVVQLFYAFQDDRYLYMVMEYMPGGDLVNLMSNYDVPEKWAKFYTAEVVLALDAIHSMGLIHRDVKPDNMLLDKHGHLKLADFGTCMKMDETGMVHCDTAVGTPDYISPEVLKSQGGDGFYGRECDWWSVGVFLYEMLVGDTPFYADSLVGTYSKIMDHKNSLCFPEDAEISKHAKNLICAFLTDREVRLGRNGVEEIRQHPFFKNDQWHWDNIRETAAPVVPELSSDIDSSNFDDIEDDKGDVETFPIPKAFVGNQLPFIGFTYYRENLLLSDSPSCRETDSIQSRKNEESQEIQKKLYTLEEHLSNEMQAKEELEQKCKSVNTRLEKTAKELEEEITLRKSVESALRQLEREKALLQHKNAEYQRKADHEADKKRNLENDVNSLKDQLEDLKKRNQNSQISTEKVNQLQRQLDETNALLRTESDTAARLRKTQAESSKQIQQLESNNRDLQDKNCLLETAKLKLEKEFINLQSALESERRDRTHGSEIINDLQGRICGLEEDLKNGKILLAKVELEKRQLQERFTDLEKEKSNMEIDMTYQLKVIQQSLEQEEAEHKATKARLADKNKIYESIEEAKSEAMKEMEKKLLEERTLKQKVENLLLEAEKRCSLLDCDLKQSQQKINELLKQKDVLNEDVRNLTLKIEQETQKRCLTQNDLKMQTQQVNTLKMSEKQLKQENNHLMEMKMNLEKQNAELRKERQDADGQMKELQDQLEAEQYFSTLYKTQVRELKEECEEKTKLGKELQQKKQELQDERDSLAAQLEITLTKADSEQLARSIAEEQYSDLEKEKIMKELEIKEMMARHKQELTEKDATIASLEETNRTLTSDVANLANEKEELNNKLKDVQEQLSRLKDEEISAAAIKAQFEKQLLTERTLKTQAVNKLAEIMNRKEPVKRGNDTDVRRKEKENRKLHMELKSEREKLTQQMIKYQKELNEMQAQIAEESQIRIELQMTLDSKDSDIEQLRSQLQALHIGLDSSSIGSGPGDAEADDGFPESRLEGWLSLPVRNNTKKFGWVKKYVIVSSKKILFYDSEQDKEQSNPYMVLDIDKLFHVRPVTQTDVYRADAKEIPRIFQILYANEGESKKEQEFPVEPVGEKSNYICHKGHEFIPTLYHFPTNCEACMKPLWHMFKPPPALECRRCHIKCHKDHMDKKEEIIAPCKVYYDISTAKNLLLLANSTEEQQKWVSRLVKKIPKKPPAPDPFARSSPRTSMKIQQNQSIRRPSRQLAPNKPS
Chain of Serine/threonine-protein kinase N1 (Homo sapiens) (Q16512 2-942 limits assumed): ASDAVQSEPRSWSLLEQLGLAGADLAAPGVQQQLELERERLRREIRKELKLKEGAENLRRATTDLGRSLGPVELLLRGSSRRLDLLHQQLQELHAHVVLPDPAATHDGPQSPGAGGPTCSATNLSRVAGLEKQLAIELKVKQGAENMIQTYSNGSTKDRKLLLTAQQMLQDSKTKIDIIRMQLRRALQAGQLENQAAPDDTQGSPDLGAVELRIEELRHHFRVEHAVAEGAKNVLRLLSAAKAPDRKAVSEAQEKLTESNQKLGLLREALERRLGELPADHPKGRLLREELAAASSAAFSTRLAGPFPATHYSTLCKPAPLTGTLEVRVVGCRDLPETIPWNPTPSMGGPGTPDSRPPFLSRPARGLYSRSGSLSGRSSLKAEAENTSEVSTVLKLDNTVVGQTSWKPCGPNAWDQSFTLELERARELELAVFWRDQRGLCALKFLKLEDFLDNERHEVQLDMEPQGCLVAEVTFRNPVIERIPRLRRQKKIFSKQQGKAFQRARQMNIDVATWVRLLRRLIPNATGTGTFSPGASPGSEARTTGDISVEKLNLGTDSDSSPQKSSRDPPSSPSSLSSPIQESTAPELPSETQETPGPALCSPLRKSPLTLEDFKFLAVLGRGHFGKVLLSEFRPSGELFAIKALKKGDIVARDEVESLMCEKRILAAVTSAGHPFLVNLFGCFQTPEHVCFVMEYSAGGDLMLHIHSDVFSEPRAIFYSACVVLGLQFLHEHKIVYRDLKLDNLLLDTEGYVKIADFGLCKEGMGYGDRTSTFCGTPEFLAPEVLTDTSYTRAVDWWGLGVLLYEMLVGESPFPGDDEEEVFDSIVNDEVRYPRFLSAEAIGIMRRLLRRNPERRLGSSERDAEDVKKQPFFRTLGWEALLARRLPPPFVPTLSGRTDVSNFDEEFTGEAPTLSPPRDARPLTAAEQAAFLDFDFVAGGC
Chain of Proto-oncogene tyrosine-protein kinase receptor Ret (Homo sapiens), P07949 [V804L] (P07949 whole entry V804L, the tested form may be a part): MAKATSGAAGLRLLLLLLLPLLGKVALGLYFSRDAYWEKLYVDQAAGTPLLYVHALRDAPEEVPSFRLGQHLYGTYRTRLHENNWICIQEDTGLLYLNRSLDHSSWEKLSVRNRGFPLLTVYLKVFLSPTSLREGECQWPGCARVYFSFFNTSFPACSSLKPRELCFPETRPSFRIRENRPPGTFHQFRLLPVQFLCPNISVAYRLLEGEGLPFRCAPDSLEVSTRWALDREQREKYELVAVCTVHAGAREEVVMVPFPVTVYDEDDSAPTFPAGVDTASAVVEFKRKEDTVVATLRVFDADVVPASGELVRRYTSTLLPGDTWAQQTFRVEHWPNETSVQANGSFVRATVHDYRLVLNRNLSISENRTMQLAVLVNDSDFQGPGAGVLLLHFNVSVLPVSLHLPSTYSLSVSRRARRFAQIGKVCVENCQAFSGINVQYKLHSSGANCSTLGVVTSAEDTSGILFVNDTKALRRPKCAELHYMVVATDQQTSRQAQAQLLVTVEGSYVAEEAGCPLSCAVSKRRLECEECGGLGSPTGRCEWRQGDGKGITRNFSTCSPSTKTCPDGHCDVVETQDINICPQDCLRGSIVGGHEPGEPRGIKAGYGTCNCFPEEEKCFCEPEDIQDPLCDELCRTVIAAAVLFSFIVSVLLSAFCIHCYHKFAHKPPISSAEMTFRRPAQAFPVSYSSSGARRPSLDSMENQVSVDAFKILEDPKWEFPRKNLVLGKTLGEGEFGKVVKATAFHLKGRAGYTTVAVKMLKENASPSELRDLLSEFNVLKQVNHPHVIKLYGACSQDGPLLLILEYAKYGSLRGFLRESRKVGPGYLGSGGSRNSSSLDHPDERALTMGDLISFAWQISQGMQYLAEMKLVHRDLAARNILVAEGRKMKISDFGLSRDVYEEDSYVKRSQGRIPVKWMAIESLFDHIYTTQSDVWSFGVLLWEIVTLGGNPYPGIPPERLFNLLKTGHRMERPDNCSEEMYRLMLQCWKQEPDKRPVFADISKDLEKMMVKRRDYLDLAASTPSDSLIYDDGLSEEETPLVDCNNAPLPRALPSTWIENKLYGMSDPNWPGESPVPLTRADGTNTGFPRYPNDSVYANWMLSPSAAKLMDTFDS
Chain of Serine/threonine-protein kinase Chk2 (Homo sapiens) (O96017 whole entry): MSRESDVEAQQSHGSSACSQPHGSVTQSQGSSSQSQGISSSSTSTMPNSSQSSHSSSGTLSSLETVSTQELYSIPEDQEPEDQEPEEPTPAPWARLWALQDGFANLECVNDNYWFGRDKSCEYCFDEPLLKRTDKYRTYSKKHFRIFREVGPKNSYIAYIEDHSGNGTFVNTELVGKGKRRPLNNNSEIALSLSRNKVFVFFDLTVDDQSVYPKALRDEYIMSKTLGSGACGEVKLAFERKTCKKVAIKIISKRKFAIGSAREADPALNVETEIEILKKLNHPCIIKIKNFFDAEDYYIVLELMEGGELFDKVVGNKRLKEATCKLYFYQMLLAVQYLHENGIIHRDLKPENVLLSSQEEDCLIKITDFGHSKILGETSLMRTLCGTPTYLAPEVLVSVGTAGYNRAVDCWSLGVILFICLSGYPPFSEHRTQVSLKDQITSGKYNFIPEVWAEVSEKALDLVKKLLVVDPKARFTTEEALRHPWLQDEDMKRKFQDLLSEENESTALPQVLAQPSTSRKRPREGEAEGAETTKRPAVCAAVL

C[C@@H]1CN(c2cc(-c3nn(C)c4ccc(OC5(C)CC5)cc34)ncn2)C[C@H](C)O1 [MLi-2-NC]
inactive: residual activity [1, 17] 84% | inhibition [2] 30.6% | residual activity [3, 17] 77% | residual activity [4, 17] 100% | inhibition [5] -3.6% | inhibition [6] 18.1% | residual activity [7, 17] 97% | residual activity [8, 17] 83% | residual activity [9, 17] 89% | residual activity [10, 17] 72% | residual activity [11, 17] 100% | residual activity [12, 17] 67% | residual activity [13, 17] 100% | residual activity [14, 17] 79% | residual activity [15, 17] 97% | residual activity [16, 17] 100%

C[C@@H]1CN(c2cc(-c3n[nH]c4ccc(OC5(C)CC5)cc34)ncn2)C[C@H](C)O1 [MLi-2]
inactive: residual activity [1, 18] 86% | inhibition [2] 7.45% | residual activity [3, 18] 100% | residual activity [4, 18] 91% | inhibition [5] 3.49% | inhibition [6] 4.44% | residual activity [7, 18] 89% | residual activity [8, 18] 100% | residual activity [9, 18] 96% | residual activity [10, 18] 98% | residual activity [11, 18] 69% | residual activity [12, 18] 73% | residual activity [13, 18] 76% | residual activity [14, 18] 67% | residual activity [15, 18] 68% | residual activity [16, 18] 100%
